Data published in patent publication US20090012595A1, “Therapeutic Drug-Eluting Endoluminal Covering” (priority 2003, published 2009).

Assay: Paclitaxel release from films into octanol/PBS or octanol/water, 232 nm
Type: physicochemical
Conditions: PBS versus water, 0, 4 and 72 hours, 37° C., continuous shaking
Procedure: Paclitaxel release—Small samples (circular discs, 8 mm) of the Paclitaxel films were placed in a solution of octanol and phosphate buffered saline (PBS) or water at a proportion of 5 ml Octanol and 10 ml PBS (or water). The solution, including the film disc, was shaken continuously at 37° C. for several days. The amount of Paclitaxel in the octanol phase of the solution was measured using a spectrophotometer at 232 nm. Measurements were carried out periodically and the amount of drug released was normalized to baseline values for control films containing no drug.

CC(=O)O[C@H]1C(=O)[C@@]2(C)[C@H]([C@H](OC(=O)c3ccccc3)[C@]3(O)C[C@H](OC(=O)[C@H](O)[C@@H](NC(=O)c4ccccc4)c4ccccc4)C(C)=C1C3(C)C)[C@]1(OC(C)=O)CO[C@@H]1C[C@@H]2O [paclitaxel]
Profile of drug release from films: significantly faster than in water
